# Measurements reported in paper PMC12833730, “Discovery of a First‐in‐Class Covalent Allosteric SHP1 Inhibitor with Immunotherapeutic Activity” (Angewandte Chemie (International Ed. in English), 2025).
# “Also recorded” adds a separate entry of the source.
# What was measured:
# [1] = target: T1, SHP1 (Homo sapiens, UniProt P29350); assay: Thermal shift assay; format: binding; conditions: vs DMSO control
# T1 construct: SHP1, residues 245-543; made in house; host or cells: E. coli BL21(DE3)
# Source text: Building on the results from the SAR “by‐catalog” study, the following medicinal chemistry effort was prioritized on a systematic survey of the central phenyl scaffold, the sulfonamide linker, and the distal aryl moiety with the goal of a multiparameter optimization of potency and selectivity for SHP1 inhibition as well as drug‐like properties such as aqueous solubility and cell permeability. Additionally, given the crucial requirement for targeted covalent inhibitors to maintain tempered reactivity that enables selective target engagement and reduces cross‐reactivity to by‐standing nucleophiles in the cellular milieu,^[ [74], [75] ^] the medicinal chemistry campaign also sought to lower SHP1 covalent inhibitor reactivity with GSH and cytotoxicity. Careful assessment and evaluation of the SAR and other desirable drug‐like attributes of all synthesized molecules led to the identification of M029 (Figure 2a and Figure S2D, manuscript in preparation). […] To determine the selectivity of M029 for SHP1, we measured the IC50 value for M029‐mediated inhibition of a number of PTPs after a 60‐min preincubation. […]
# The mixtures were centrifuged to remove the unfolded SHP1 proteins, and the supernatants were spiked with a control protein CDC14A, followed by loading into SDS‐PAGE gels to quantify the relative SHP1 level.
# [2] = tested on: IL-2 in Jurkat T cells; assay: IL-2 mRNA / production; format: cell-based; conditions: dose response
# Procedure: Supernatants from lysed cells were reduced, treated with iodoacetamide to cap thiol residues, and digested by trypsin for bottom‐up proteomics analysis. […] LCK is the direct substrate of SHP1 and ERK1/2, and PLCγ is the downstream effector protein of LCK‐mediated TCR signaling. […] Statistical analyses were performed with Graphpad Prism software 10.4.2 through the one‐way ANOVA test using Turkey post‐hoc comparison. ****p < 0.0001 was considered significant.
# To further confirm M029 cellular target engagement, we investigated the effect of M029 on T cell function. SHP1 plays a negative role in T cells, and deletion of SHP1 in T cells lowers the activation threshold and enhances antitumor immunity.^[ [30], [31], [32], [33] ^] Mechanistically, SHP1 attenuates T cell receptor (TCR) signaling via dephosphorylation of the lymphocyte‐specific protein tyrosine kinase LCK.^[ [31], [84], [85], [86] ^] T cell activation leads to increased expression and secretion of interleukin 2 (IL‐2)^[ [87] ^] while the removal of SHP1 in T cells enhances IL‐2 production, cell proliferation, and cytolysis capacity.^[ [30], [32] ^] Accordingly, we sought to assess the impact of targeting SHP1 with M029 on TCR‐LCK signaling and T cell activation. […] M029 also dose‐dependently promoted IL‐2 production (Figure 4c). […] These findings corroborate that the observed increase in LCK phosphorylation and its downstream signaling indeed resulted from SHP1 inhibition by M029.
# [3] = tested on: MC38 tumor immune infiltrates; assay: Flow cytometry of MC38 tumor immune infiltrates; format: in vivo, C57BL/6 mice; conditions: MC38 tumors
# Procedure: Figure 5 M029 inhibits syngeneic MC38 tumor growth by promoting infiltration and activation of both T cells and NK cells in the tumor microenvironment. […] This T cell activation was further supported by i) the increased effector CD8^+ population in the tumor microenvironment. […] Statistical analyses were performed with Graphpad Prism software 10.4.2 through the student t test or the one‐way ANOVA test using Turkey post‐hoc comparison. *p < 0.05, **p < 0.01, ***p < 0.001, and ****p < 0.0001 were considered significant. Figures are plotted as average ± standard error of the mean (SEM).
# To elucidate the mechanism by which M029 elicits its antitumor activity, we analyzed the immune cell population within the tumor samples. […] This observation is in line with earlier reports that SHP1 activity contributes to LAIR1‐mediated T cell exhaustion.^[ [91] ^]
# For immune cell profiling in the tumor microenvironment, tumor samples were first reduced to single-cell suspensions by compressing the tumors through a 70 µm filter (Falcon, #352350) into cold 1× PBS supplemented with 5 mM EDTA using the plunger of a syringe (HSW, #4010-200V0). Samples were strained through a second filter and then re-suspended in cold blocking buffer made of 5% BSA, 0.5 mM EDTA, and a 1:1000 dilution of CD16/32. Samples were then incubated with following fluorophore-conjugated antibodies. CD4-488 (Biolegend #100423), CD8a-PE (Biolegend #100708), CD45-PeCy7 (Biolegend #103114), CD25-BV605 (Biolegend #102035), CD44-647 (Biolegend #103039), CD19-488 (Biolegend #115524), NK1.1-647 (Biolegend #108719), CD3-PeCy5 (Biolegend #100273), CD8-BV711 (Biolegend #100747), CD4-PeCy5 (Biolegend #100409), CD69-FITC (Biolegend #104505), FoxP3-488 (Biolegend #126405), Perforin-APC (Biolegend #154303), CD62L-BV605 (Biolegend #104437), TIM3-PerCP/Cy5.5 (Biolegend #134011), PD1-647 (Biolegend #109118), CD11b-BV711 (Biolegend #101241), CD206-FITC (Biolegend #141704), F4/80-647 (Biolegend #123122), CD86-PE (Biolegend #159203), CD11c-BV421 (Biolegend #117329), Ly6G-488 (Biolegend #127625), CD11b-APC (Biolegend #101211), Ly6C-PE (Biolegend #128007), F4/80-BV711 (Biolegend #123147), IL2-BV421 (Biolegend #503825), IFNγ-BV605 (Biolegend #505839), TNFα-APC (Biolegend #506307). The following antibodies were used for depletion studies: anti-CD8α (BioXCell #BE0061) and anti-NK1.1 (BioXCell #BE0036). Samples were incubated with antibodies at a 1:600 dilution in blocking buffer on ice for two hours. After staining, samples were washed and re-suspended in 5% BSA, 0.5 mM EDTA solution, then added to a 5 mL polystyrene tube for analysis (Falcon, #352235). Sample data was acquired using a BD LSRFortessa Cell Analyzer, and results were analyzed using FlowJo.
# T1 sequence (P29350 245-543): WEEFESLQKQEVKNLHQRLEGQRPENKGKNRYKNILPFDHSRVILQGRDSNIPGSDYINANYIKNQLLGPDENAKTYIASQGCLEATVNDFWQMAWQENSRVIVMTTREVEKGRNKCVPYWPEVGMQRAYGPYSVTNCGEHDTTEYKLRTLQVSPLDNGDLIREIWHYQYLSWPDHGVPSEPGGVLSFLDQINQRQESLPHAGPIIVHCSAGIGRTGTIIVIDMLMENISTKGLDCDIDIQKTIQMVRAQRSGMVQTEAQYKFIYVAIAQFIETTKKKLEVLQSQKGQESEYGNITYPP
smiles,measurement,setting,value
"N#Cc1ccsc1NS(=O)(=O)c1ccc(NC(=O)CCl)cc1 [M029, 2-Chloro-N-(4-(N-(3-cyanothiophen-2-yl)sulfamoyl)phenyl)acetamide]",decrease in SHP1 protein melting temperature,[1],1.8 °C
same,IL-2 production / relative IL-2 mRNA level,[2],increased; also recorded: promoted
same,late exhaustion T cells (PD1+TIM3+),[3],a decline
same,pre-exhausted PD1+TIM3− T cells,[3],increased
same,activation marker CD25 on infiltrating CD8+ T cells,[3]; 25 mg/kg,higher expression
same,activation of tumor-infiltrating NK cells (CD69),[3]; 25 mg/kg,significantly more activated
same,cytotoxicity marker perforin on infiltrating CD8+ T cells,[3]; 25 mg/kg,higher expression
same,effector markers CD44+CD62L− on infiltrating CD8+ T cells,[3]; 25 mg/kg,higher expression
same,infiltration of cytotoxic CD8+ T cells,[3]; 25 mg/kg,increased infiltration
same,increase of CD3+ T cells in tumor,"[3]; 25 mg/kg, vs control",~33%
same,increase of NK1.1+ NK cells in tumor,"[3]; 25 mg/kg, vs control",~100%
